A value given as a limit tells only on which side of the number the result lay.

Assay [1] relates to B. subtilis strain NCBI3610. Briefly: Biofilm (pellicle) inhibition assay, B. subtilis in liquid biofilm-inducing medium. As to conditions: for concentration above which inhibition of biofilm formation is observed: B. subtilis pellicle formation; for inhibition of pellicle formation at 50 μM: cells diluted 1:1000 in biofilm media, final concentration 50 μM; for minimal effective concentration: Bacillus subtilis, NCBI3610, read-out: MBIC- Minimal Biofilm Inhibitory Concentration; for biofilm-inhibitory activity against B. subtilis: structure-activity. It is filed as cell-based, Bacillus subtilis. The protocol:
Bacillus subtilis strains PY79, 3610 and their derivatives were grown in Luria-Bertani (LB) medium at 37° C. or MSgg medium (1) at 23° C. Solid media contained 1.5% Bacto agar. When appropriate, antibiotics were added at the following concentrations for growth of B. subtilis: 10 μg per ml of tetracycline, and 5 μg per ml of erythromycin, 500 μg per ml of spectinomycin.
B. subtilis strain NCBI3610 was grown at 22° C. in 12-well plates in liquid biofilm-inducing medium for 3 or 8 days. Conditioned medium (500 ml) from an 8-day-old culture was concentrated on the C-18 column and eluted step-wise with methanol. […]
Pellicle formation of strain NCBI 3610 was tested in the presence of the indicated concentrations of norspermidine (FIG. 1D) or spermidine (FIG. 1E).
To identify features of norspermidine important for its biofilm disassembly activity, we tested a library of polyamines in our biofilm inhibition assay (FIGS. 9A, 9B, 10 and Table 2).
The effect of polyamines on pellicle formation by B. subtilis was examined. B. subtilis wild-type cells were grown to a mid-logarithmic phase and diluted 1:1000 in biofilm media applied with each polyamine to the final concentration of 50 μM.
The effect of cyclic polyamines on biofilm formation by B. subtilis was examined. B. subtilis wild-type cells were grown to a mid-logarithmic phase and diluted 1:1000 in biofilm media (18A) or in a medium applied with cyclic compound 1,5,9-Triazacyclododecane to the final concentration of 50 μM (18B).

Assay [2] has as its system B. subtilis wild-type cells. Briefly: Biofilm formation on solid biofilm medium, B. subtilis. It is filed as cell-based, Bacillus subtilis. As to conditions: 1 μl of cells mixed with 1 μl (1 mM) polyamine. On the procedure: B. subtilis wild-type cells were grown to a mid-logarithmic phase and 1 μl of cells was mixed with 1 μl (1 mM) of each polyamine. The mixture was plated on solid biofilm medium.
B. subtilis wild-type cells were grown to a mid-logarithmic phase and 1 μl of cells was either mixed with PBS (18C) or mixed with 1 μl (1 mM) of each polyamine (18D). The mixture was plated on solid biofilm medium. “3*” refers to 1,5,9-Triazacyclododecane.

In assay [3] the test system is exopolysaccharide and TasA of B. subtilis NCBI 3610. Briefly: Fluorescence microscopy of matrix components (concanavalin A-Texas Red, TasA-mCherry), B. subtilis. As to conditions: norspermidine 25 μM, spermidine 1 mM. The class given is cell-based, Bacillus subtilis. From the text:
The cells were washed in PBS and stained for exopolysaccharide with a conjugate of concanavalin A with Texas-Red.
[…] Cells were washed in PBS, and visualized by fluorescence microscopy.
To investigate further, exopolysaccharide was visualized by fluorescence microscopy using a conjugate of the carbohydrate-binding protein concanavalin A with Texas Red (FIG. 5) (McSwain et al., 2005). As evidence of specificity, the conjugate decorated wild-type cells but not cells from a mutant (Aeps) blocked in exopolysaccharide production (FIG. 6A). Indeed, at an exposure at which concanavalin A staining with the wild type strain gave an extremely bright fluorescent signal, little or no signal could be detected for the Aeps mutant, except at long exposures and enhanced brightness (FIG. 6A). Next, we investigated the effects of norspermidine and spermidine. […] Therefore, the difference in the staining was evidently due to differential levels of cell-associated exopolysaccharide. […] Thus, while not being bound to any theory, it is believed that norspermidine disrupts the matrix and by targeting exopolysaccharide.

For assay [4], the system named is exopolysaccharide of S. aureus cells. Briefly: Fluorescence microscopy of exopolysaccharide staining, S. aureus. It is filed as cell-based, Staphylococcus aureus.
The test system of assay [5] is exopolysaccharide of E. coli cells. Briefly: Fluorescence microscopy of exopolysaccharide staining, E. coli. It is filed as cell-based, Escherichia coli. From the text: In testing E. coli, the biofilm-proficient strain MC4100 was selected because a major component of exopolysacchride is colanic acid (Danese et al., 2000; Price and Raivio, 2009).
Where [6] appears, read: B. subtilis biofilm inhibition assay, library of polyamines.

Take 1,3-diaminopropane [Molecule 6]: the “MBIC- Minimal Biofilm Inhibitory Concentration” value in assay [1] (setting [6]) was 2500 to 5000 µM. The “concentration above which inhibition of biofilm formation is observed” value in assay [1] is over 5 mM.

As to `NCCCCNCCCN` [Molecule 3, 1,8-diamino-4-azaoctane, reference compound], the “concentration above which inhibition of biofilm formation is observed” value in assay [1] (listed as spermidine) is over 2 mM. In addition, the “inhibition of pellicle formation at 50 μM” value in assay [1] is recorded as “do not”. Moreover, in assay [2], the “inhibition of biofilm formation on solid biofilm medium” value was “do not”. In assay [3], the “pattern of concanavalin A-Texas Red staining of exopolysaccharide” value is listed as “No such effect”. Moreover, in assay [4], the “staining of exopolysaccharide, S. aureus cells” value is on record as “not”. Further, in assay [5], the “staining of exopolysaccharide, E. coli cells” value was “not”.

In the case of `NCCCCNCCCN` [Molecule 3, spermidine], in assay [1] (setting [6]), the minimal effective concentration stood at 5000 µM.

Regarding `NCCCNCCCCNCCCN` [Molecule 4, 1,12-diamino-4,9-diazaoctane, reference compound], the minimal effective concentration in assay [1] (setting [6]) came out at 2500 µM.

With `NCCCCN` [Molecule 5, 1,4-diaminobutane, reference compound], in assay [1] (setting [6]), the minimal effective concentration was in the range of 2000 to 3000 µM.

For the compound `CN(C)CCCN(C)CCCN(C)C` [Molecule 7, N^1-(3-(dimethylamino)propyl)-N^1,N^3,N^3-trimethylpropane-1,3-diamine], the minimal effective concentration in assay [1] (setting [6]) was over 5000 µM.

With `CN(C)CCCNCCCN(C)C` [Molecule 8, N^1-(3-(dimethylamino)propyl)-N^3, N^3-dimethylpropane-1,3-diamine], the minimal effective concentration in assay [1] (setting [6]) is over 5000 µM.

In the case of `CN(CCCN)CCCN` [Molecule 9, (3-aminopropyl)-N^1-methylpropane-1,3-diamine], the minimal effective concentration in assay [1] (setting [6]) is over 5000 µM.

In the case of `NCCCOCCCN` [Molecule 10, 3,3′-oxybis(propan-1-amine)], the minimal effective concentration in assay [1] (setting [6]) is 5000 µM.

Turning to `CCOC(=O)CCC(=O)CCC(=O)OCC` [Molecule 11, Diethyl 4-oxoheptanedioate], in assay [1] (setting [6]), the minimal effective concentration is over 5000 µM.

Consider `c1cc2ccc1CNCCCNCCCNCc1ccc(cc1)CNCCCNCCCNC2` [Molecule 12, 3,7,11,18,22,26-Hexaazatricyclo[26.2.2.213,16]tetratriaconta-13,15,28,30,31,33-hexaene], for which the minimal effective concentration in assay [1] (setting [6]) was 500 µM. The “biofilm-inhibitory activity against B. subtilis” value (“biofilm-inhibitory activity” for short) in assay [1] (library of polyamines) was “active”.

As to `CCCCCCCCCCCCNCCCNCCCNCCCCCCCCCCCC` [Molecule 13, N^1-dodecyl-N^3-(3-(dodecylamino)propyl)propane-1,3-diamine], in assay [1] (setting [6]), the minimal effective concentration stood at 100 µM. For the same compound, the “biofilm-inhibitory activity” value in assay [1] (library of polyamines) is given as “active”.

On to `Cc1c(Cc2[nH]c(C(=O)OC(C)(C)C)c(C)c2C)[nH]c(Cc2[nH]c(C(=O)OC(C)(C)C)c(C)c2C)c1C` [Molecule 14, di-tert-butyl 5,5′-((3,4-dimethyl-1H-pyrrole-2,5-diyl)bis(methylene))bis(3,4-dimethyl-1H-pyrrole-2-carboxylate)], for which, in assay [1] (setting [6]), the minimal effective concentration is 500 to 700 µM. The “biofilm-inhibitory activity” value in assay [1] (library of polyamines) is recorded as “active”.

For `NNC(=O)Cc1ccc(CC(=O)NN)[nH]1` [Molecule 15, 2,2′-(1H-pyrrole-2,5-diyl)di(acetohydrazide)], in assay [1] (setting [6]), the minimal effective concentration is over 5000 µM.

For `CN(C)N(CCC(N)=O)CCC(N)=O` [Molecule 16, 3,3′-(2,2-dimethylhydrazine-1,1-diyl)dipropanamide], in assay [1] (setting [6]), the minimal effective concentration is over 5000 µM.

In the case of `O=C(NCCCNCCCNC(=O)C(O)C(O)C(O)C(O)CO)C(O)C(O)C(O)C(O)CO` (centres unmarked) [Molecule 17, N,N′-(azanediylbis(propane-3,1-diyl))bis(2,3,4,5,6-pentahydroxyhexanamide)], in assay [1] (setting [6]), the minimal effective concentration was over 5000 µM.

In the case of `NCCCCCN` [Molecule 19, pentane-1,5-diamine, reference compound], the minimal effective concentration in assay [1] (setting [6]) was 3000 µM.

For the compound `OCCCNCCCO` [Molecule 20, 3,3′-azanediylbis(propan-1-ol)], the minimal effective concentration in assay [1] (setting [6]) was over 5000 µM.

`NCCCN(CCCN)CCCN` [Molecule 21, N^1,N^1-bis(3-aminopropyl)propane-1,3-diamine]: the minimal effective concentration in assay [1] (setting [6]) amounted to 200 µM. In addition, in assay [1] (library of polyamines), the “biofilm-inhibitory activity” value is reported as “did not block activity”.

With `C1CNCCCNCCCNC1` [c, 1,5,9-triazacyclododecane], in assay [1], the “inhibition of pellicle formation at 50 μM” value is recorded as “inhibits biofilm formation”. For the same compound, in assay [2], the “inhibition of biofilm formation on solid biofilm medium” value was “inhibits biofilm formation”.

As to `C1COCCN1` [morpholine, reference compound], the “inhibition of pellicle formation at 100 μM” value in assay [1] (NCBI3610 in fresh medium, 100 μM (FIG. 1B)) is “inactive”.
